The source of these data is patent publication US4209527A, “Benzimidazolone derivatives” (Pfizer Inc., priority 1979, dated 1980).

In general, inhibition refers to the relative decrease from the control value, in per cent. A low value points to a weak effect.

Structures can show the parent of a compound that is named as a salt.

The first data set deals with T1, aldose reductase (Bos taurus, UniProt P16116).
T1 construct: partially purified aldose reductase enzyme obtained from calf lens; from tissue; host or cells: calf lens
In words: inhibition of aldose reductase enzyme activity (procedure of S. Hayman et al., modified by K. Sestanj et al.). In kind it is biochemical. Particulars: 10^-4 M; partially purified enzyme from calf lens. As for the experimental part:
The activity of the compounds of the present invention, as agents for the control of chronic diabetic complications, is determined by their ability to successfully pass one or more of the following standard biological and/or pharmacological tests, viz., (1) measuring their ability to inhibit the enzyme activity of isolated aldose reductase; (2) measuring their ability to reduce or inhibit sorbitol accumulation in the sciatic nerve of acutely streptozotocinized (i.e., diabetic) rats; (3) measuring their ability to reverse already-elevated sorbitol levels in the sciatic nerve and lens of chronic streptozotocin-induced diabetic rats; (4) measuring their ability to prevent or inhibit galactitol formation in the lens of acutely galactosemic rats and (5) measuring their ability to delay cataract formation and reduce the severity of lens opacities in chronic galactosemic rats.
The following 3-(substituted methyl)-2-oxo-1-benzimidazolinealkanoic acid final products of Examples 15-24 and 26-28, respectively, were tested at a concentration level of 10^-4 M for their ability to reduce or inhibit aldose reductase enzyme activity via the procedure of S. Hayman et al., as described in the Journal of Biological Chemistry, Vol. 240, p. 877 (1965) and as modified by K. Sestanj et al. in U.S. Pat. No. 3,821,383. In every case, the substrate employed was partially purified aldose reductase enzyme obtained from calf lens.
Regarding `COc1ccc(Cn2c(=O)n(CC(=O)O)c3ccccc32)cc1` [Example 18, 3-(p-methoxybenzyl)-2-oxo-1-benzimidazolineacetic acid], the inhibition at 100 µM is 88%. In turn, `O=C(O)Cn1c(=O)n(Cc2ccc(Cl)c(Cl)c2)c2ccccc21` [Example 19, 3-(3,4-dichlorobenzyl)-2-oxo-1-benzimidazolineacetic acid] returned an inhibition at 100 µM of 89%.

Regarding `O=C(O)Cn1c(=O)n(Cc2ccc3ccccc3c2)c2ccccc21` [Example 22, 3-(β-naphthyl)methyl-2-oxo-1-benzimidazolineacetic acid], 100 µM produced 86% inhibition. Compound `O=C(O)Cn1c(=O)n(Cc2ccc(Cl)cc2)c2ccccc21` [Example 17, 3-(p-chlorobenzyl)-2-oxo-1-benzimidazolineacetic acid] had an inhibition at 100 µM of 88%. The compound `CC(C(=O)O)n1c(=O)n(Cc2ccc(Cl)c(Cl)c2)c2ccccc21` (stereo not drawn) [Example 27, α-[3-(3,4-dichlorobenzyl)-2-oxo-1-benzimidazoline]propionic acid] showed an inhibition at 100 µM of 91%. On the same count and under the same terms, then `O=C(O)Cn1c(=O)n(Cc2ccccc2)c2ccccc21` [Example 15, 3-benzyl-2-oxo-1-benzimidazolineacetic acid], with 84%; and `Cc1ccc(Cn2c(=O)n(CC(=O)O)c3ccccc32)cc1` [Example 16, 3-(p-xylyl)-2-oxo-1-benzimidazolineacetic acid], with 86%; and `O=C(O)Cn1c(=O)n(Cc2ccc(Cl)c(Cl)c2)c2cc(Cl)c(Cl)cc21` [Example 26, 3-(3,4-dichlorobenzyl)-5,6-dichloro-2-oxo-1-benzimidazolineacetic acid], with 82%.

Take `O=C(O)Cn1c(=O)n(Cc2cccc3ccccc23)c2ccccc21` [Example 21, 3-(α-naphthyl)methyl-2-oxo-1-benzimidazolineacetic acid]: the inhibition at 100 µM is 92%.

The compound `O=C(O)Cn1c(=O)n(CC(=O)c2ccc(Cl)cc2Cl)c2ccccc21` [Example 23, 3-(2,4-dichlorobenzoylmethyl)-2-oxo-1-benzimidazolineacetic acid] gave an inhibition at 100 µM of 71%. Turning to `O=C(O)Cn1c(=O)n(Cc2ccc(Cl)cc2Cl)c2ccccc21` [Example 20, 3-(2,4-dichlorobenzyl)-2-oxo-1-benzimidazolelineacetic acid], the inhibition at 100 µM was 87%. For the compound `O=C(O)CCn1c(=O)n(Cc2ccc(Cl)c(Cl)c2)c2ccccc21` [Example 28, β-[3-(3,4-dichlorobenzyl)-2-oxo-1-benzimidazoline]propionic acid], at 100 µM the inhibition was 90%. Turning to `O=C(O)Cn1c(=O)n(Cc2ccccc2)c2cc(Cl)c(Cl)cc21` [Example 24, 3-benzyl-5,6-dichloro-2-oxo-1-benzimidazolineacetic acid], the inhibition at 100 µM was 89%.

Tested on in the next data set: not listed separately
In words: toxic side effects / untoward pharmacological side reactions. The data set is classed as in vivo, rat. To be noted: diabetic rats, oral, 2.5 mg./kg. to 25 mg./kg. From the text: As previously indicated, the 3-(substituted methyl)-2-oxo-1-benzimidazolinealkanoic acid final products of this invention are all readily adapted to therapeutic use as aldose reductase inhibitors for the control of chronic diabetic complications, in view of their ability to reduce lens sorbitol levels in diabetic subjects to a statistically significant degree. […] Furthermore, the herein described compounds of this invention can be administered by either the oral or parenteral routes of administration, for the present purposes at hand, without causing any significant untoward pharmacological side reactions to occur in the subject to whom they are so administered. In general, these compounds are ordinarily administered in dosages ranging from about 0.25 mg. to about 25 mg. per kg. of body weight per day, although variations will necessarily occur depending upon the weight and condition of the subject being treated and the particular route of administration chosen.
In the case of `O=C(O)Cn1c(=O)n(Cc2ccccc2)c2ccccc21` [Example 15, 3-benzyl-2-oxo-1-benzimidazolineacetic acid], the “signs of toxic side effects” value was “without showing any substantial signs of toxic side effects”.

Tested on in another data set: not listed separately
In words: solubility in water. In kind it is physicochemical. To be noted: amorphous powder, freeze-dried. Here is the method:
The sodium salt of 3-benzyl-2-oxo-1-benzimidazolineacetic acid is prepared by dissolving said compound in water containing an equivalent amount in moles of sodium hydroxide and then freeze-drying the mixture.
For `O=C(O)Cn1c(=O)n(Cc2ccccc2)c2ccccc21` [Example 35, sodium salt of 3-benzyl-2-oxo-1-benzimidazolineacetic acid], the solubility in water entry is “freely-soluble in water”.
